Non-standard residues stand in square brackets, D forms with d. Pen = CC(C)(S)[C@H](N)C(=O)O
How the values were obtained:
U87-MG cells = assay: In vitro cytotoxicity assay (CCK-8) in U87-MG cells; conditions: U87-MG (high αvβ3 integrin), 48 h incubation, fold of free DM1 activity
Method: (§1) Cells were plated in 96-well microplates at a density of 5×10^4 cells/well for 24 h for attachment, 90 μl of DMEM with 10% FBS and 100 U/mL P/Swas added to each well. PDCs 1-6 were first dissolved in DMSO respectively, at a concentration of 10 mM, followed by serial dilution in culture medium to achieve different concentrations as specified. For U87-MG cells, the concentration of compounds administered ranged from 1.37 to 27000 nM. While for HEK-293T cells, the concentration of compounds administered ranged from 0.03 to 1000 nM. The cells treated with the compounds were then incubated for 48 h. 10 μl of CCK-8 solution was then added to each well and incubated for 30 min. Absorbance was acquired at 450 nm using a spectrophotometer (Synergy HTX, Biotek). Three experiments were performed separately in triplicates and the data was processed using the GraphPad Prism (GraphPad Software, La Jolla, CA).
(§2) Next, the biological activities of these conjugates were evaluated.
Then, the in vitro antitumor efficacy of PDCs 1-6 was examined by CCK-8 assay (FIG. 5B). The IC50 of free DM1 and its conjugates were compared internally within the same cell line, to determine the potency of the six compounds.

HEK-293T cells = assay: In vitro cytotoxicity assay (CCK-8) in HEK-293T cells; conditions: for cytotoxicity in words (ranking among the six compounds): HEK-293T, CCK-8, PDCs 1-6
Method: as §1, §2
The peptide-drug conjugates were tested on the negative control cell line.

[1] = Stability test of conjugates (checked by LCMS); assay type: physicochemical; conditions: 5% ACN in H2O or 5% ACN in PBS pH 7.4, 0.5 mM, room temperature or 37° C., LCMS after 24 h and 48 h
Method: FIGS. 5A-5C are line graphs of stability test and biological evaluations of PDC 1-6. […] The compound was checked by LCMS after 24 h and 48 h.

αvβ3 integrin = αvβ3 integrin (Homo sapiens, UniProt P05106+P06756); conditions: Kapp, et al., Sci. Rep. 2017; cited from earlier work
Chain of αvβ3 integrin (P06756 31-1048): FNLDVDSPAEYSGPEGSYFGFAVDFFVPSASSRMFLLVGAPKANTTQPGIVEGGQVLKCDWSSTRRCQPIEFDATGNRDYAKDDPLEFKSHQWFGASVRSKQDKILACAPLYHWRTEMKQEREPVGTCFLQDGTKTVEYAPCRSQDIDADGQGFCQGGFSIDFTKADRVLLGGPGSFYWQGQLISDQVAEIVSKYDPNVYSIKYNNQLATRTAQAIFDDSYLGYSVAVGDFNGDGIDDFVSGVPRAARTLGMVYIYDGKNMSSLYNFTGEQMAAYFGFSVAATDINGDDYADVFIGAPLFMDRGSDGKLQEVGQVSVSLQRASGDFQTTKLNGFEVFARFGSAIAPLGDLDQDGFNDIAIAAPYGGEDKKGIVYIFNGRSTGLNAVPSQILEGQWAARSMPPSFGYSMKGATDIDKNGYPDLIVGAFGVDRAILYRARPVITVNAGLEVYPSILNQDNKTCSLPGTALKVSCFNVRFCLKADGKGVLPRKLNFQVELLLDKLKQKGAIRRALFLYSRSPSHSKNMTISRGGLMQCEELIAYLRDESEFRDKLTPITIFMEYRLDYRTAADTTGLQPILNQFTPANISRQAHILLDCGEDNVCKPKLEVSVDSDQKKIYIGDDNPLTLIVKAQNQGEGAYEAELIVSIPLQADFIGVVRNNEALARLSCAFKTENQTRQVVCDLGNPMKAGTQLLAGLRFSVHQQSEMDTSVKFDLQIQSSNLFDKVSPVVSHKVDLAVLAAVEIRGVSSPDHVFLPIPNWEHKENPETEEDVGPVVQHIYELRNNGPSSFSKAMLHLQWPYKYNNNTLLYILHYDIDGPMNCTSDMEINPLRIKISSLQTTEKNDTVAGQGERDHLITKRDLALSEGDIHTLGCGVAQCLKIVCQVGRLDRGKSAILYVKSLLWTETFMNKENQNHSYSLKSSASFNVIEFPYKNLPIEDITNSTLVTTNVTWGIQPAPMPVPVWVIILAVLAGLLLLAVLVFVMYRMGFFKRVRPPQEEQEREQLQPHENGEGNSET
Chain of αvβ3 integrin (P05106 27-788): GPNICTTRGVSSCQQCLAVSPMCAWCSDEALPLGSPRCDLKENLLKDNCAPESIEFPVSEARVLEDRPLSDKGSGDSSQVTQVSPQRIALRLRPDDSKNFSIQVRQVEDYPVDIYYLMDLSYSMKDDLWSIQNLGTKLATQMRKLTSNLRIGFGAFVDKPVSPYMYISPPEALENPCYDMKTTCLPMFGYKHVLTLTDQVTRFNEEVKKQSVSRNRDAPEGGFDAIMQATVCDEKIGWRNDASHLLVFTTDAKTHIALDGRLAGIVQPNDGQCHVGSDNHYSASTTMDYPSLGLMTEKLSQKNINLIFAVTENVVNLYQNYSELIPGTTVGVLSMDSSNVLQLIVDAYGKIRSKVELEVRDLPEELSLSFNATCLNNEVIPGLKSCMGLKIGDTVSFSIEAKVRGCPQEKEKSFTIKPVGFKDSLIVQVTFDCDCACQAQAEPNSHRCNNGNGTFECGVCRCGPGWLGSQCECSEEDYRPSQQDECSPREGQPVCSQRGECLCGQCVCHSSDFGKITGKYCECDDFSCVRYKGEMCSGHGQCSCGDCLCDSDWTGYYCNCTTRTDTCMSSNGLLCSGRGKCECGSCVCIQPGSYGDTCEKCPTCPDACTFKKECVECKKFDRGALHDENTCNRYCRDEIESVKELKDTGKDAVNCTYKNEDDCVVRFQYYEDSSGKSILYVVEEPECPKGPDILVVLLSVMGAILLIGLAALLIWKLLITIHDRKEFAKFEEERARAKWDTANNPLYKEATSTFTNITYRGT

integrin αvβ3 = integrin αvβ3 (UniProt P06756 31-1048; P05106 27-788); assay: cell-based or functional assay
Chain of integrin αvβ3 (P06756 31-1048, chain 1 of 2): as the sequence (P06756 31-1048) above
Chain of integrin αvβ3 (P05106 27-788, chain 2 of 2): as the sequence (P05106 27-788) above

COc1cc2cc(c1Cl)N(C)C(=O)C[C@H](OC(=O)[C@H](C)N(C)C(=O)CCSc1c3ccccc3cn1CCCC[C@@H]1NC(=O)[C@@H](Cc3ccccc3)NC(=O)[C@H](CC(=O)O)NC(=O)CNC(=O)[C@H](CCCNC(=N)N)NC1=O)[C@]1(C)O[C@H]1[C@H](C)[C@@H]1C[C@@](O)(NC(=O)O1)[C@H](OC)/C=C/C=C(\C)C2 [PDC-1, OPA-c [RGDfK]-DM1]
cytotoxicity compared to free DM1 (IC50 compared within the same cell line) (U87-MG cells): 0.85 fold

COc1cc2cc(c1Cl)N(C)C(=O)C[C@H](OC(=O)[C@H](C)N(C)C(=O)CCSSCCn1cc3ccccc3c1SC(C)(C)[C@@H]1NC(=O)[C@@H](Cc3ccccc3)NC(=O)[C@H](CC(=O)O)NC(=O)CNC(=O)[C@H](CCCNC(=N)N)NC1=O)[C@]1(C)O[C@H]1[C@H](C)[C@@H]1C[C@@](O)(NC(=O)O1)[C@H](OC)/C=C/C=C(\C)C2 [PDC-3]
cytotoxicity compared to free DM1 (IC50 compared within the same cell line) (U87-MG cells): 5.95 fold | cytotoxicity as fold of the activity of DM1 (HEK-293T cells; HEK-293T (low αvβ3 integrin, negative control), 48 h incubation, CCK-8): 0.31 fold | cytotoxicity in words (ranking among the six compounds) (HEK-293T cells): relatively better activity among the six compounds | stability compared to PDC-1 (FIG. 5A) [1]: improved stability

COc1cc2cc(c1Cl)N(C)C(=O)C[C@H](OC(=O)[C@H](C)N(C)C(=O)CCSc1c3ccccc3cn1CCCC[C@@H]1NC(=O)[C@@H](Cc3ccccc3)NC(=O)[C@H](CCC(=O)O)NC(=O)CNC(=O)[C@H](CCCNC(=N)N)NC1=O)[C@]1(C)O[C@H]1[C@H](C)[C@@H]1C[C@@](O)(NC(=O)O1)[C@H](OC)/C=C/C=C(\C)C2 [PDC-5]
cytotoxicity compared to free DM1 (IC50 compared within the same cell line) (U87-MG cells): 0.49 fold

COc1cc2cc(c1Cl)N(C)C(=O)C[C@H](OC(=O)[C@H](C)N(C)C(=O)CCSSCCn1cc3ccccc3c1SC(C)(C)[C@@H]1NC(=O)[C@@H](Cc3ccccc3)NC(=O)[C@H](CCC(=O)O)NC(=O)CNC(=O)[C@H](CCCNC(=N)N)NC1=O)[C@]1(C)O[C@H]1[C@H](C)[C@@H]1C[C@@](O)(NC(=O)O1)[C@H](OC)/C=C/C=C(\C)C2 [PDC-6]
cytotoxicity compared to free DM1 (IC50 compared within the same cell line) (U87-MG cells): 0.48 fold | cytotoxicity in words (ranking among the six compounds) (HEK-293T cells): relatively better activity among the six compounds

c [c [RGDfK]]
increase of binding affinity compared to the linear RGD tripeptide (αvβ3 integrin): 39 fold

c [c [RGDfV]]
increase of binding affinity compared to the linear RGD tripeptide (αvβ3 integrin): 58 fold

B1: PDC-4 (peptide)
peptide: cyclo(RGD[dF]K(Pen))
modifications: not fully specified
cytotoxicity (CCK-8 assay) in U87-MG cells, fold against free DM1 (integrin αvβ3): 1.29 fold | cytotoxicity (CCK-8 assay) in the αvβ3-negative cell line HEK-293T, fold of the activity of DM1 (integrin αvβ3): 0.16 fold

Reference: patent US20260098054A1, “COMPOSITIONS AND METHODS FOR CONSTRUCTING CONJUGATES” (priority 2022, published 2026)
